In patent US7282507B2, “Indole derivatives as selective androgen receptor modulators (SARMS)” (Janssen Pharmaceutica N.V., priority 2004, dated 2007):
Where “and” joins values, the source holds several entries; their conditions need not be identical. Equal values may be shown once. Read-outs that look alike come from different tables or passages of the source.

Legend:
[1] = target: T1, androgen receptor (AdEasy+rAR, L929 cells) (Rattus norvegicus, UniProt P15207); experiment: L929 Androgen Receptor Functional Assay, Adenovirus Transduction; format: cell-based; details: for % Activity, L929 androgen receptor functional assay: agonist testing; for inhibition at 3 µM: L929, antagonist testing with R1881, 3000 nM; for IC50: antagonist testing with R1881
T1 construct: expressed in transfected cells; host or cells: L929 cells transduced with adenovirus AdEasy+rAR
T1 sequence (P15207 1-902): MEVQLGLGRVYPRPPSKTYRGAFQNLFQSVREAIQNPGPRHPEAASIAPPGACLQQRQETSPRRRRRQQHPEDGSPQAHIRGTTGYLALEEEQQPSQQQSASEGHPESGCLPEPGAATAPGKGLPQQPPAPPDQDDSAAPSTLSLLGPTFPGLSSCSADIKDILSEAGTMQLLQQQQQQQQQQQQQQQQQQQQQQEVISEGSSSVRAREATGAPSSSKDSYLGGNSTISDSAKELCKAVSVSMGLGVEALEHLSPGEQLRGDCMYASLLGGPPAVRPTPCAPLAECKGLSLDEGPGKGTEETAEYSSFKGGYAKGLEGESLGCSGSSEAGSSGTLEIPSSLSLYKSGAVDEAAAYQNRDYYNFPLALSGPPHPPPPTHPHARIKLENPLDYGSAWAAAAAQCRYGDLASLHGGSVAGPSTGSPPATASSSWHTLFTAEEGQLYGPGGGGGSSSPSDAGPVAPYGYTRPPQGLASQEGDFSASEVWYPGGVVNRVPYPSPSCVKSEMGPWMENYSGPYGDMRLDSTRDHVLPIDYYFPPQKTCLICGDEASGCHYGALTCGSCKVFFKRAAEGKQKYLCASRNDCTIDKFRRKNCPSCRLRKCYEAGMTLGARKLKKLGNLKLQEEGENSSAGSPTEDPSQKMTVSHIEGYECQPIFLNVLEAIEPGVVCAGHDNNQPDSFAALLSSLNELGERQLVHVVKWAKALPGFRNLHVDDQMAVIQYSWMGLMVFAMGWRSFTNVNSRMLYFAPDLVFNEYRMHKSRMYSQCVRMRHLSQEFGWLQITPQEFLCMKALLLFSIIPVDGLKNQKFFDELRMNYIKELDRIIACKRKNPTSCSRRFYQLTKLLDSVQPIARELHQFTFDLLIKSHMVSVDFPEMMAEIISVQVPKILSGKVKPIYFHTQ
Procedure, shortened: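 L929 cells in phenol red-free, charcoal-stripped serum medium transduced with AdEasy+rAR (moi 1:500) and exposed 48 h at 37 °C to compound alone (agonist mode) or with R1881 (antagonist mode; 2.5 nM as the 2.5× dilution).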

[2] = target: T2, androgen receptor (AdEasy+rAR, COS-7 cells) (Rattus norvegicus, UniProt P15207); experiment: COS-7 Whole-Cell Androgen Receptor Binding Assay, Adenovirus Transduction; details: for inhibition at 3 µM / % Inhibition, COS Binding: concentration of 3000 nM; for % Inhibition, COS Binding: 3 µM
T2 construct: expressed in transfected cells; host or cells: COS-7 cells transduced with adenovirus AdEasy+rAR
T2 sequence (P15207 1-902): T1 sequence (P15207 1-902)
Protocol: COS-7 cells were plated in 96-well plates at 20,000 cells per well, in a solution of DMEM/F12 (GIBCO) containing 10% (v/v) charcoal-treated fetal bovine serum (Hyclone) and lacking phenol red. The cells were then incubated overnight at 37° C. in 5% (v/v) humidified CO2.
Test compound solutions were prepared by diluting the test compound in 100% (v/v) DMSO, if necessary.
Next, 1 mL of DMEM/F12 lacking phenol red was pipetted into each of the wells of a 2-mL 96-well assay block. […] The wells were carefully mixed by pipette.
In a 15 mL or 50 mL sterile centrifuge tube, a dilution in DMEM/F12 of the adenovirus AdEasy+rAR at a moi of 1:50 per well was prepared.
The medium was removed from the 96-well plates by inversion and the plates dried very briefly, inverted, on a sterile towel. As soon as possible after medium removal, 40 μL of the diluted test compound was added to each well, in duplicate. […] The plates were then incubated for 48 hours at 37° C. in 5% (v/v) humidified CO2.
The medium was removed from the above incubated plates by inversion and dried. Each well was then washed with 0.35 mL of 1× PBS. The PBS was then removed from the plates by inversion and the plates dried.
To each well was then added 50 μL of 0.5% (v/v) Triton X-100 (Sigma) in 1× PBS and the plates placed on a rotary shaker for 5 min. The contents of each well were then transferred to an OptiPlate-96 (Packard) scintillation plate. To each well was then added 0.2 mL of Microscint-20 (Packard) and the wells counted on a TopCount (Packard).
Percent inhibition was determined by testing dilutions of the test compound (usually duplicates of 10 μM) in the binding assay. Counts per well were measured and percents of inhibition determined. […] Counts per well were measured and IC50s determined by linear regression.

[3] = system: testosterone-enhanced ventral prostate and seminal vesicle weights; experiment: Ventral Prostate and Seminal Vesicle Weight in vivo Assay; parameters: species or system rat; details: immature castrated male Sprague Dawley rats, once daily for five days, usually orally 40 mg/kg, with testosterone propionate 2 mg/kg s.c. Further: key: 'active' if the non weight adjusted prostate weight was ≦40 mg or the % Inhibition prostate weight, body weight adjusted was ≧40% @ 2 mg/day dosage; ID50's, if determined, of ≦15 mg/day also indicated an 'active' compound; listed herein as 'inactive' as they did not meet the specified criteria defined above.
Procedure, shortened: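 Immature castrated male Sprague Dawley rats (~50 g) were dosed once daily for five days with compound, usually orally at 40 mg/kg in cyclodextrin or methylcellulose vehicle. Testosterone propionate was co-dosed subcutaneously at 2 mg/kg. On day six, ventral prostate and seminal vesicle wet weights were measured; activity was judged on prostate weight or body-weight-adjusted % inhibition.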

[4] = read-out: IC50 (nM), COS Binding

| Compound | % Activity, L929 androgen receptor functional assay ([1]; 3000 nM) [%] | IC50 [2, 4] [nM] | active / inactive: inhibition of testosterone-enhanced prostate weight [3] | inhibition at 3 µM [2] [%] | other results |
| --- | --- | --- | --- | --- | --- |
| CC(O)(CSc1ccccc1N)c1cc2cc(Cl)c(C(F)(F)F)cc2[nH]1 (stereo not shown) [Compound 123] | −4 | > 3000 | inactive | – | % Activity, L929 androgen receptor functional assay ([1]; @ 8000 nM): 1 @ 8000 nM % |
| CN(C)c1ccc(SCC(C)(O)c2cc3cc(Cl)c(C(F)(F)F)cc3[nH]2)cc1 (stereo not shown) [Compound 124] | −4 | > 3000 | inactive | – | – |
| CC(O)(CSc1ccc(C(=O)O)cc1)c1cc2cc(Cl)c(C(F)(F)F)cc2[nH]1 (stereo not shown) [Compound 133] | −4 | – | inactive | 65 | inhibition at 3 µM [1]: 19%; IC50 ([2]; IC50 (nM), COS Binding): > 1500 nM |
| CCSCC(C)(O)c1cc2cc(F)c(C(F)(F)F)cc2[nH]1 (racemic) [Compound 206] | – | – | active | – | % Activity, L929 androgen receptor functional assay ([1]; 3000 nM, 3 µM): 5%; % Inhibition, COS Binding [2]: −40% |
| CCSCC(C)(O)c1[nH]c2cc(C(F)(F)F)c(C#N)cc2c1C (single isomer, unassigned) [Compound 234, 2-(2-Ethylsulfanyl-1-hydroxy-1-methyl-ethyl)-3-methyl-6-trifluoromethyl-1H-indole-5-carbonitrile] | – | 539 | inactive | – | % Activity, L929 androgen receptor functional assay ([1]; 3000 nM, 3 µM): −1%; IC50 [1]: 215 nM; % Inhibition, L929 androgen receptor functional assay ([1]; antagonist testing with R1881, 3000 nM, 3 µM): 99%; % Inhibition, COS Binding [2]: 71% |
| CCSCC(C)(OC)c1cc2cc(C#N)c(C(F)(F)F)cc2n1C (stereo not shown) [Compound 235] | 3 | 520 | inactive | 78 | inhibition at 3 µM [1]: 95%; IC50 [1]: 1840 nM |
| CCSCC(C)(O)c1[nH]c2cc(C(F)(F)F)c(C#N)cc2c1C (single isomer, unassigned) [Compound 233, 2-(2-Ethylsulfanyl-1-hydroxy-1-methyl-ethyl)-3-methyl-6-trifluoromethyl-1H-indole-5-carbonitrile] | – | 45.6 | active | – | inhibition at 3 µM [1]: 97%; % Activity, L929 androgen receptor functional assay ([1]; 3000 nM, 3 µM): 0%; IC50 [1]: 69.2 nM; % Inhibition, COS Binding [2]: 95% and 81% |
| CCC(O)(CS(=O)(=O)CC(F)(F)F)c1[nH]c2cc(C(F)(F)F)c([N+](=O)[O-])cc2c1Cl (stereo not shown) [Compound 199] | 2 | 310 | inactive | 82 | inhibition at 3 µM [1]: 59% |
| CSCC(C)(O)c1cc2cc(Cl)c(C(F)(F)F)cc2n1S(C)(=O)=O (stereo not shown) [Compound 134] | – | > 10000 | inactive | – | – |
| CCS(=O)(=O)CC(C)(O)c1cc2cc([N+](=O)[O-])c(C(F)(F)F)cc2[nH]1 (stereo not shown) [Compound 175] | – | > 3000 | active | – | – |
| CCSCC(C)(O)c1[nH]c2cc(C(F)(F)F)c([N+](=O)[O-])cc2c1C#N (single isomer, unassigned) [Compound 247] | – | 60.7 | inactive | 90 | – |
| CCSCC(C)(OC)c1cc2cc([N+](=O)[O-])c(C(F)(F)F)cc2[nH]1 (stereo not shown) [Compound 167] | – | > 3000 | active | – | – |
| CCSCC(C)(CO)c1cc2cc([N+](=O)[O-])c(C(F)(F)F)cc2[nH]1 (stereo not shown) [Compound 11] | – | > 3000 | inactive | – | – |
| CCSCC(C)(O)c1[nH]c2cc(C(F)(F)F)c([N+](=O)[O-])cc2c1C#N (stereo not shown) [Compound 242] | – | 305 | inactive | 92 | – |
